Here are results for five molecules from PMC5136371, “Acetylcholinesterase and Cytotoxic Activity of Chemical Constituents of Clutia lanceolata Leaves and its Molecular Docking Study” (Natural Products and Bioprospecting, 2016).

Like-named read-outs stand apart in the source and are kept apart here.

The target in one data set is T1, human recombinant AChE (Homo sapiens, UniProt P22303).
T1 construct: purchased Sigma-Aldrich
The experiment in a line: biochemical. As for the experimental part: AChE stock solution was prepared by dissolving human recombinant AChE (EC: 3.1.1.7) lyophilized powder (Sigma-Aldrich) in 0.1 M phosphate buffer (pH = 8.0) containing Triton X-100 (0.1 %). […] Increasing concentrations of the tested inhibitor were added to the assay solution and pre-incubated for 5 min at 37 °C with the enzyme followed by the addition of the substrate. Initial rate assays were performed at 37 °C using a Jasco V-530 double beam Spectrophotometer. The absorbance value at 412 nm was recorded for 5 min and enzyme activity was calculated from the slope of the obtained linear trend. Assays were carried out with a blank containing all components except AChE to account for the non-enzymatic reaction. The reaction rates were compared and the percent inhibition due to the presence of tested inhibitors was calculated. […] Tacrine was used as a standard inhibitor.

Data set [1] deals with brine shrimp nauplii (Artemia salina). The experiment in a line: In vivo cytotoxicity, brine shrimp lethality bioassay. The note with it: 24 h incubation, 10-80 µg/mL, triplicate. The procedure:
The in vivo cytotoxicity of compounds (1–4) isolated from the leaves of C. lanceolata was evaluated to brine shrimp nauplii using vincristine sulfate as standard (Fig. S1 †ESI). It is one of the most convenient methods to determine the cytotoxicity of any compound.
Brine shrimp lethality bioassay is commonly used in the bioassay for the bioactive compounds [44, 45]. The in vivo cytotoxicity assay was performed on brine shrimp nauplii (Artemia salina) in accordance with the Mayer method. The egg of brine shrimp were hatched in a tank filled with artificially prepared sea water (brine, 3.8 % NaCl) exposed to incandescent light. Air was supplied at the bottom of the tank with the help of air supplier fitted with tube to keep the shrimps in uniform motion. The assay was performed 24 h after hatching and no food supplement was given during the hatching and experimental periods. A test sample (5.0 mg) was dissolved in 1 mL DMSO to obtain stock solution of 5 mg/mL. Different concentrations of test samples were obtained from stock solution and placed in separate vials, and the volume of each vial was made up to 5 mL with brine to obtain the desired final concentrations (10, 20, 40, 60 and 80 µg/mL). The negative control was prepared in the same manner without the samples. Vincristine sulphate was used as a standard anti-cancer drug. Thirty brine shrimp nauplii were then placed in each vial. After 24 h of incubation, the vials were observed using a magnifying glass, and the number of survivors in each vial were counted and noted. The LD50 values were calculated using the plot of percentage of mortality and logarithm of concentration. All tests were performed in triplicate and expressed as mean.

Data set [2] in a line: Solubility and air stability of the isolated crystals. The data set is classed as physicochemical. The note with it: for solubility in organic solvents: all common organic solvents; for stability in air: once isolated.

T1 sequence (P22303 32-614): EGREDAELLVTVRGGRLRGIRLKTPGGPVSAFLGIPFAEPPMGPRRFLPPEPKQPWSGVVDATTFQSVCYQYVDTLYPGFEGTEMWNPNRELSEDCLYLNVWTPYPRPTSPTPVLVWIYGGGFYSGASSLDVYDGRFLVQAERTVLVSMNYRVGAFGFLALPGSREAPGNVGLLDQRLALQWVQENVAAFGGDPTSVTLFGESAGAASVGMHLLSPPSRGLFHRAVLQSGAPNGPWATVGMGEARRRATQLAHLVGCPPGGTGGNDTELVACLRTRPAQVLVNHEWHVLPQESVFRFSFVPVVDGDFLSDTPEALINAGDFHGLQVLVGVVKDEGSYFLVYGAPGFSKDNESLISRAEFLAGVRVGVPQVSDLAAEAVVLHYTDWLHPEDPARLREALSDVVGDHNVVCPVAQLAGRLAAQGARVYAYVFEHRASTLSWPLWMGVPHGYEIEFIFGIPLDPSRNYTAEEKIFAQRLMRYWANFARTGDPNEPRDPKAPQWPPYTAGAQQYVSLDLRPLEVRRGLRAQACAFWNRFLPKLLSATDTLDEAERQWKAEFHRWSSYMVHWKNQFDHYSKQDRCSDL

The term IC50 denotes the concentration needed to halve the response being measured. Regarding `Cc1c(C(=O)O)ccc(O)c1O` [Compound 1, 3,4-dihydroxy-2-methylbenzoic acid], at human recombinant AChE (human recombinant AChE, pH 8.0, 37 °C, substrate acetylthiocholine iodide 550 µM, triplicate, read-out: IC50 ± SEM for hAChE inhibition), the IC50 is 23.7 ± 0.02 µM. For the same molecule, the LD50 value in data set [1] stood at 23.40 ± 0.02 µg/mL; in data set [1] (listed as compound 1) it was 23.40 µg/mL.

With `Oc1ccc2ccccc2c1-c1c(O)ccc2ccccc12` [Compound 2, 2,2′-dihydroxy-1,1′-binaphthyl], on human recombinant AChE, the IC50 was 21.9 ± 0.05 µM. Also, in data set [2], the “solubility in organic solvents” value is recorded as “soluble in all common organic solvents”, the stability in air result is given as “air-stable” and the solubility in water entry is recorded as “insoluble in water”. In addition, the LD50 value in data set [1] was determined as 17.78 ± 0.05 µg/mL. The molecule also had an LD50 value in data set [1] (listed as compound 2) of 17.78 µg/mL.

`Cc1cc(O)c2c(c1)C(=O)c1cc(O)cc(O)c1C2=O` [Compound 3, 1,3,8-trihydroxy-6-methylanthracene-9,10-dione]: the IC50 on human recombinant AChE worked out at 14.2 ± 0.06 µM. Also, the LD50 value is 13.80 ± 0.03 µg/mL in data set [1] and 13.80 µg/mL in data set [1] (listed as compound 3).

On to `COc1cc(/C=C/C(=O)/C=C(O)/C=C/c2ccc(O)c(OC)c2)ccc1O` [Compound 4, 5-hydroxy-1,7-bis(4-hydroxy-3-methoxyphenyl)hepta-1,4,6-trien-3-one], for which, in data set [2], the “solubility in organic solvents” value is “soluble in all common organic solvents”, the stability in air entry is reported as “air-stable” and the solubility in water result is recorded as “insoluble in water”. For the same molecule, in data set [1], the LD50 value is 11.66 ± 0.04 µg/mL. The molecule further registered an LD50 value in data set [1] (listed as compound 4) of 11.66 µg/mL.

With `CC[C@]1(O)C[C@H]2CN(CCc3c([nH]c4ccccc34)[C@@](C(=O)OC)(c3cc4c(cc3OC)N(C=O)[C@H]3[C@@](O)(C(=O)OC)[C@H](OC(C)=O)[C@]5(CC)C=CCN6CC[C@]43[C@@H]65)C2)C1` [Vincristine sulphate, reference compound], the results for the LD50 value in data set [1] and in data set [1] (listed as vincristine sulfate) were 8.84 ± 0.01 µg/mL and 8.84 µg/mL, respectively.
